The record followed here is US9988397B2, “ERK inhibitors” (Merck Sharp & Dohme Corp., priority 2014, dated 2018).

For this test, the target named is phosphorylated active hERK2 enzyme (Homo sapiens, UniProt P28482). In words: Active human ERK2 (hERK2) Activity Assay (IMAP-FP). It is filed as biochemical. Particulars: 10 point titration, 3 μM starting concentration, 0.5 nM hERK2, 30 μM ATP, 60 minutes reaction.
Chain of phosphorylated active hERK2 enzyme (P28482 whole entry): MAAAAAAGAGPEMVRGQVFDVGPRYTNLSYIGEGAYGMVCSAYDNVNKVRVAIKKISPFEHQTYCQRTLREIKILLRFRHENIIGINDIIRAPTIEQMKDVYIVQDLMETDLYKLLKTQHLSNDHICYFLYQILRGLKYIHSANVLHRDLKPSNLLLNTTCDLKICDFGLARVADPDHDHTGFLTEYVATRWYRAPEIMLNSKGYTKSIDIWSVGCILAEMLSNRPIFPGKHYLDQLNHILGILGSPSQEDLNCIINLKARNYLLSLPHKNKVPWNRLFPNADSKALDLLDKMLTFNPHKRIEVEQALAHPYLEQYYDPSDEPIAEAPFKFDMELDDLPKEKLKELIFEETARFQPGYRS
Protocol: Activated ERK2 activity was determined in an IMAP-FP assay (Molecular Devices). Using this assay format, the potency (IC50) of each compound was determined from a 10 point (1:3 serial dilution, 3 μM starting compound concentration) titration curve using the following outlined procedure. […] Following a 15 minute compound & enzyme incubation, each reaction was initiated by the addition of 10 μL kinase buffer containing 2.45 μM ERK2 IMAP substrate peptides and 75 μM ATP. The final reaction in each well of 25 μL consists of 0.5 nM hERK2, 900 nM unlabeled peptide, 80 nM labeled-peptide, and 30 μM ATP. Phosphorylation reactions were allowed to proceed for 60 minutes and were immediately quenched by the addition of 60 μL IMAP detection beads (1:1000 dilutions) in IMAP binding buffer (Molecular Devices) with 24 mM NaCl. Plates were read on EnVision reader after 60 minutes binding equilibration using Fluorescence Polarization protocol (Perkin Elmer).
`Cc1cc(-n2ncc3cc4nc(c32)Cn2cc(nn2)CC(c2ccccc2)NC(=O)N4)ccn1` (single isomer, unassigned) [Example 38, 1-(2-Methylpyridin-4-yl)-9-phenyl-1,6,9,10-tetrahydro-5,16-(azeno)-14,11-(metheno)pyrazolo[4,3-l][1,2,3,7,9]pentaazacyclopentadecin-7(8H,15H)-one]: the concentration for half-maximal inhibition (IC50) is 87.3 nM.

With `Cc1cc(-n2ncc3cc4nc(c32)Cn2cc(nn2)CC(c2ccccc2)NC(=O)N4)ccn1` (single isomer, unassigned) [Example 39, 1-(2-Methylpyridin-4-yl)-9-phenyl-1,6,9,10-tetrahydro-5,16-(azeno)-14,11-(metheno)pyrazolo[4,3-l][1,2,3,7,9]pentaazacyclopentadecin-7(8H,15H)-one], the midpoint of inhibition, the IC50, lay at 233 nM.

As for `CCn1ncc2cc3nc(c21)C[C@@H](OC)COC[C@@H](c1ccccc1)NC(=O)N3` (stereo in doubt) [Example 44, (9R,13R)-1-Ethyl-13-methoxy-9-phenyl-1,6,9,10,13,14-hexahydro-12H-5,15-(azeno)pyrazolo[4,3-i][1,4,6]oxadiazacyclotetradecin-7(8H)-one], inhibition was half-maximal at 32.8 nM (IC50).

Molecule `CCn1ncc2cc3nc(c21)CCCOC[C@H](c1ccccc1)NC(=O)N3` [Example 1, (9S)-1-Ethyl-9-phenyl-1,6,9,10,13,14-hexahydro-12H-5,15-(azeno)pyrazolo[4,3-i][1,4,6]oxadiazacyclotetradecin-7(8H)-one] displayed an IC50 of 8.79 nM.

On to `Cn1ncc2cc3nc(c21)CCCOC[C@H](c1ccccc1)NC(=O)N3` [Example 2, (9S)-1-Methyl-9-phenyl-1,6,9,10,13,14-hexahydro-12H-5,15-(azeno)pyrazolo[4,3-i][1,4,6]oxadiazacyclotetradecin-7(8H)-one], for which the half-inhibitory concentration (IC50) came to 10.2 nM.

Molecule `CCn1ncc2cc3nc(c21)CC(C)(O)COC[C@H](c1ccccc1)NC(=O)N3` (stereo partly drawn) [Example 5, (9S)-1-Ethyl-13-hydroxy-13-methyl-9-phenyl-1,6,9,10,13,14-hexahydro-12H-5,15-(azeno)pyrazolo[4,3-i][1,4,6]oxadiazacyclotetradecin-7(8H)-one] displayed a half-maximal inhibitory concentration (IC50) of 114 nM.

Molecule `CCn1ncc2cc3nc(c21)[C@@H]1C[C@@H]1COC[C@H](c1ccccc1)NC(=O)N3` [Example 7, (9S,12aS,13 aR)-1-Ethyl-9-phenyl-1,6,9,10,12,12a,13,13a-octahydro-5,14-(azeno)cyclopropa[l]pyrazolo[4,3-i][1,4,6]oxadiazacyclotetradecin-7(8H)-one] registered an IC50 of 11.6 nM.

Consider `CCn1ncc2cc3nc(c21)[C@H]1C[C@H]1COC[C@H](c1ccccc1)NC(=O)N3` [Example 8, (9S,12aR,13aS)-1-Ethyl-9-phenyl-1,6,9,10,12,12a,13,13a-octahydro-5,14-(azeno)cyclopropa[1]pyrazolo[4,3-i][1,4,6]oxadiazacyclotetradecin-7(8H)-one], for which the 50% inhibitory concentration (IC50) worked out at 49.7 nM.

In turn, `O=C1Nc2cc3cnn(C(F)F)c3c(n2)CCCOC[C@H](c2ccccc2)N1` [Example 9, (9S)-1-(Difluoromethyl)-9-phenyl-1,6,9,10,13,14-hexahydro-12H-5,15-(azeno)pyrazolo[4,3-i][1,4,6]oxadiazacyclotetradecin-7(8H)-one] registered a half-maximal inhibitory concentration (IC50) of 12.5 nM.

`O=C1Nc2cc3cnn(C(F)F)c3c(n2)/C=C\COC[C@H](c2ccccc2)N1` [Example 10, (9S,13Z)-1-(Difluoromethyl)-9-phenyl-1,6,9,10-tetrahydro-12H-5,15-(azeno)pyrazolo[4,3-i][1,4,6]oxadiazacyclotetradecin-7(8H)-one] displayed a 50% inhibitory concentration (IC50) of 4.16 nM.

On to `CCn1ncc2cc3nc(c21)CCCOC(C)(C)[C@H](c1ccccc1)NC(=O)N3` [Example 11, (9S)-1-Ethyl-10, 10-dimethyl-9-phenyl-1,6,9,10,13,14-hexahydro-12H-5,15-(azeno)pyrazolo [4,3-i][1,4,6]oxadiazacyclotetradecin-7(8H)-one], for which half-maximal inhibition (IC50) was put at 16.2 nM.

On to `CCn1ncc2cc3nc(c21)CCCOC(C)(C)[C@@H](c1ccccc1)NC(=O)N3` [Example 12, (9R)-1-Ethyl-10,10-dimethyl-9-phenyl-1,6,9,10,13,14-hexahydro-12H-5,15-(azeno)pyrazolo[4,3-i][1,4,6]oxadiazacyclotetradecin-7(8H)-one], for which the IC50 stood at 734 nM.

`CCn1ncc2cc3nc(c21)CCCO[C@@H](CO)[C@@H](c1ccccc1)NC(=O)N3` [Example 13, (9R,10R)-1-Ethyl-10-(hydroxymethyl)-9-phenyl-1,6,9,10,13,14-hexahydro-12H-5,15-(azeno)pyrazolo[4,3-i][1,4,6]oxadiazacyclotetradecin-7(8H)-one]: it took 757 nM to reach half-maximal inhibition (IC50).

`CCn1ncc2cc3nc(c21)CCCO[C@H](CO)[C@H](c1ccccc1)NC(=O)N3` [Example 14, (9S,10S)-1-Ethyl-10-(hydroxymethyl)-9-phenyl-1,6,9,10,13,14-hexahydro-12H-5,15-(azeno)pyrazolo[4,3-i][1,4,6]oxadiazacyclotetradecin-7(8H)-one] showed an IC50 of 3.44 nM.

As to `CN1CCCc2nc(cc3cnn(C)c23)NC(=O)N[C@@H](c2ccccc2)C1` [Example 15, (9S)-1,11-Dimethyl-9-phenyl-1,6,9,10,11,12,13,14-octahydro-5,15-(azeno)pyrazolo[3,4-k][1,3,6]triazacyclotetradecin-7(8H)-one], it took 56.8 nM to reach half-maximal inhibition (IC50).

`CCn1ncc2cc3nc(c21)OCCCCC(c1ccccc1)NC(=O)N3` (stereo not drawn) [Example 16, 1-Ethyl-9-phenyl-1,6,8,9,10,11,12,13-octahydro-7H-5,15-(azeno)pyrazolo [3,4-c][1,7,9]oxadiazacyclotetradecin-7-one] returned a concentration for half-maximal inhibition (IC50) of 85.4 nM.

In turn, `Cn1ncc2cc3nc(c21)OCCCC[C@H](c1ccccc1)NC(=O)N3` [Example 17, (9R)-1-Methyl-9-phenyl-1,6,8,9,10,11,12,13-octahydro-7H-5,15-(azeno)pyrazolo [3,4-c][1,7,9]oxadiazacyclotetradecin-7-one] registered an IC50 of 58.9 nM.

The molecule `CCn1ncc2cc3nc(c21)NCCCCC(c1ccccc1)NC(=O)N3` (stereo not drawn) [Example 18, 1-Ethyl-9-phenyl-1,6,9,10,11,12,13,14-octahydro-5,15-(azeno)pyrazolo[4,3-f][1,3,9]triazacyclotetradecin-7(8H)-one] came in with a concentration for half-maximal inhibition (IC50) of 15.7 nM.

`Cn1ncc2cc3nc(c21)NCCCC[C@H](c1ccccc1)NC(=O)N3` [Example 19, (9R)-1-Methyl-9-phenyl-1,6,9,10,11,12,13,14-octahydro-5,15-(azeno)pyrazolo[4,3-f][1,3,9]triazacyclotetradecin-7(8 H)-one] yielded an IC50 of 9.32 nM.

In turn, `CN1CCCCC(c2ccccc2)NC(=O)Nc2cc3cnn(C)c3c1n2` (stereo not drawn) [Example 20, 1,14-Dimethyl-9-phenyl-1,6,9,10,11,12,13,14-octahydro-5,15-(azeno)pyrazolo[4,3-f][1,3,9]triazacyclotetradecin-7(8H)-one] yielded an IC50 of 85.7 nM.

`CCn1ncc2cc3nc(c21)NCCOC[C@H](c1ccccc1)NC(=O)N3` [Example 21, (9S)-1-Ethyl-9-phenyl-1,6,9,10,13,14-hexahydro-12H-5,15-(azeno)pyrazolo[4,3-i][1,4,6,12]oxatriazacyclotetradecin-7(8H)-one] showed an IC50 of 5.01 nM.

As to `Cn1ncc2cc3nc(c21)NCCOC[C@H](c1ccccc1)NC(=O)N3` [Example 22, (9 S)-1-Methyl-9-phenyl-1,6,9,10,13,14-hexahydro-12H-5,15-(azeno)pyrazolo[4,3-i][1,4,6,12]oxatriazacyclotetradecin-7(8 H)-one], the IC50 was 7.91 nM.

As to `Cn1ncc2cc3nc(c21)OCCC[C@H](O)[C@H](c1ccccc1)NC(=O)N3` [Example 23, (9S,10S)-10-Hydroxy-1-methyl-9-phenyl-1,6,8,9,10,11,12,13-octahydro-7H-5,15-(azeno)pyrazolo[3,4-c][1,7,9]oxadiazacyclotetradecin-7-one], it took 45.1 nM to reach half-maximal inhibition (IC50).

`Cn1ncc2cc3nc(c21)OCCC[C@@H](O)[C@H](c1ccccc1)NC(=O)N3` [Example 24, (9S,10R)-10-Hydroxy-1-methyl-9-phenyl-1,6,8,9,10,11,12,13-octahydro-7H-5,15-(azeno)pyrazolo[3,4-c][1,7,9]oxadiazacyclotetradecin-7-one] came in with an IC50 of 190 nM.

`CCn1ncc2cc3nc(c21)OCCC[C@H](O)[C@H](c1ccccc1)NC(=O)N3` [Example 25, (9S,10S)-1-Ethyl-10-hydroxy-9-phenyl-1,6,8,9,10,11,12,13-octahydro-7H-5,15-(azeno)pyrazolo[3,4-c][1,7,9]oxadiazacyclotetradecin-7-one] gave a half-maximal inhibitory concentration (IC50) of 24.3 nM.

With `CCn1ncc2cc3nc(c21)OCCC[C@@H](O)[C@H](c1ccccc1)NC(=O)N3` [Example 26, (9S,10R)-1-Ethyl-10-hydroxy-9-phenyl-1,6,8,9,10,11,12,13-octahydro-7H-5,15-(azeno)pyrazolo[3,4-c][1,7,9]oxadiazacyclotetradecin-7-one], the IC50 is 118 nM.

The molecule `CCn1ncc2cc3nc(c21)OCCC[C@](C)(O)[C@H](c1ccccc1)NC(=O)N3` [Example 27, (9S,10S)-1-Ethyl-10-hydroxy-10-methyl-9-phenyl-1,6,8,9,10,11,12,13-octahydro-7H-5,15-(azeno)pyrazolo[3,4-c][1,7,9]oxadiazacyclotetradecin-7-one] showed an IC50 of 148 nM.

With `CCn1ncc2cc3nc(c21)OCCC[C@@](C)(O)[C@H](c1ccccc1)NC(=O)N3` [Example 28, (9S,10R)-1-Ethyl-10-hydroxy-10-methyl-9-phenyl-1,6,8,9,10,11,12,13-octahydro-7H-5,15-(azeno)pyrazolo[3,4-c][1,7,9]oxadiazacyclotetradecin-7-one], the IC50 was 144 nM.

The molecule `Cn1ncc2cc3nc(c21)OCCOC[C@H](c1ccccc1)NC(=O)N3` [Example 29, (9S)-1-methyl-9-phenyl-1,6,9,10,12,13-hexahydro-5,15-(azeno)pyrazolo[4,3-i][1,12,4,6]dioxadiazacyclotetradecin-7(8H)-one] gave an IC50 of 49.2 nM.

`Cn1ncc2cc3nc(c21)CCCCCC(c1ccccc1)NC(=O)N3` (stereo not drawn) [Example 30, 1-Methyl-9-phenyl-1,6,9,10,11,12,13,14-octahydro-5,15-(azeno)pyrazolo[4,3-f][1,3]diazacyclotetradecin-7(8H)-one] showed an IC50 of 230 nM.
